Source: patent publication US9302967B2, “Substituted cathechols as inhibitors of IL-4 and IL-5 for the treatment of bronchial asthma” (Council of Scientific & Industrial Research, priority 2011, dated 2016)
Where two headings read alike, the source gives them in different places.

What was measured:
[1] = test system: OVA sensitized, OVA challenged mice; test: Airway hyperresponsiveness to methacholine (whole-body plethysmography), OVA mouse model of asthma; type: in vivo, BALB/c mice; settings: for AHR to Mch / lung function compared with dexamethasone: 10 mg/kg orally twice a day, DEX 0.75 mg/kg once a day; for MCh PC200 (AHR to methacholine): 0.05, 0.1, 5 and 10 mg/kg orally twice per day
Method: BALB/c mice (6-8 wks old, 18-22 grams) were obtained from IICB Kolkata and VPCI, Delhi. Ethical clearance has been obtained from Institutional Ethical Committee. Mice were acclimatized for at least one week under the laboratory conditions (25±2° C., 60% humidity) before starting the experiments. After one week, baseline Penh (enhanced pause) was measured in Buxco unrestrained single chamber plethysmography (WBP, Buxco, Troy, N.Y.).
Mice were sensitized with 0.2 ml PBS containing 50 μg ovalbumin (OVA) (Sigma, USA) and 4 mg aluminum hydroxide in saline intraperitonially (i.p.) on days 0, 7 and 14 as shown in FIG. 1. Sham group mice were sensitized with only alum dissolved in PBS. From day 18 to 27, mice were exposed to aerosol of OVA (3%) inhalation 25 minutes daily in a Plexiglas chamber (20×20×10 cm^3). The aerosol was generated by a nebulizer (OMRON CX model) with an airflow rate of 9 L/minute. Sham group mice were challenged with PBS alone.
Compound 1 of formula I was dissolved in 50% ethanol. So 50% ethanol was used as a vehicle. Group I was alum sensitized, saline challenged and treated with vehicle (SHAM/SAL/VEH), group II was OVA sensitized, OVA challenged and treated with 50% ethanol as vehicle (OVA/OVA/VEH), group III, IV, V, VI were OVA sensitized, OVA challenged and treated with 0.05, 0.1, 5 and 10 mg/kg compound 1 of formula I. Drug was given in the volume of 10 μl orally twice per day. Confirmatory experiments were done with two concentrations of compound 1 of formula I (5 and 10 mg/kg twice a day), and these findings were compared with parallel group of mice which were OVA-sensitized, -OVA challenged and treated orally once a day with 0.75 mg/kg Dexamethasone (OVA/OVA/DEX).
Airway responsiveness was measured by barometric plethysmography using whole-body plethysmography (WBP; Buxco, Troy, N.Y.) 12 hours after last saline or ovalbumin challenge. At the time of measurement the animals were awake and breathing spontaneously. Enhanced pause (Penh) to methacholine as measured using barometric plethysmography is a valid indicator of bronchoconstriction in mice and can be used to measure AHR (Am J Respir Crit Care Med 1997, 156, 766-775). Baseline Penh was taken initially, and then PBS followed by increasing concentrations (4-48 mg/ml) of methacholine was nebulized through an inlet of the main chamber for 3 min. Readings were taken and averaged for 5 minutes from the starting time of nebulisation. Airway responsiveness to MCh was evaluated by the concentration of MCh required to increase the Penh to twice the baseline value (MCh PC200).

NF-κB pathway = settings: lipopolysaccharide (LPS)-induced macrophages; cited from earlier work
[2] = parameters: species or system mice; settings: mouse, in vivo
Method: 14 d acute oral toxicity of compound 1 of formula I was performed. Three doses were selected: 47, 23, 12 and 0 mg/kg bw (Vehicle control) of compound 1 of formula I was administered by single oral gavage using blunt ended steel canula.
Clinical biochemistry was performed using detection kit purchased from SPINREACT, SA, Spain. The blood left after the hematological studies were allowed to clot for 2 h and serum separated by centrifugation at 3000 rpm for 5 min and subsequently used for clinical biochemistry. Details of the clinical biochemistry (Table 4) and relative organ weight (Table 5) are given below.

IL-4 = test: PHA-stimulated human PBMC, IL-4 in supernatant by Cytometric Bead Array; type: cell-based; settings: PHA 10 μg/ml, read-out: IC50 inhibitory activity, stimulation-induced IL-4
Method: Normal human peripheral blood mononuclear cells (PBMC) were stimulated with phytohemagglutinin (PHA) 10 μg/ml in the presence and absence of varying concentrations of compounds of formula I and II. Culture supernatants were harvested and IIL-4 and IL-5 cytokines were quantitated by Cytometric Bead Array (CBA™) kit (Becton Dickinson, USA) following manufacturers instructions using a Flow Cytometer (BD LSR, Becton Dickinson) and CBA™ analysis software (Becton Dickinson).

[3] = 14 d acute oral toxicity: immunotoxicity (EPA guideline 1998); type: in vivo, mice; settings: for Bone marrow cell viability % / Lymph node lymphocyte viability % (pooled) / Splenocyte viability %: 14 d acute
Method: 14 d acute oral toxicity of compound 1 of formula I was performed. […]
Immunotoxicity in mice was performed in accordance to EPA guideline (1998). […] Humoral immunity was measured in terms of HA titer and plaque forming cell assay. […] Cell mediated immunity was measured in terms of % increase in paw volume in mice sensitized with SRBC.

[4] = listed as compound of formula I

With C=CCc1ccc(O)c(O)c1 [Compound 1, 4-allyl-benzene-1,2-diol] the “AHR to Mch / lung function compared with dexamethasone” value [1] was “able to improve lung function almost similar to the level of dexamethasone”, the “AHR to Mch / lung function compared with dexamethasone” value [1, 4] was “significantly reduced the AHR to Mch as effective as DEX” and the “MCh PC200 (AHR to methacholine)” value [1] was “increased in a dose dependent manner”. The “MCh PC200 (AHR to methacholine)” value [1, 4] was “effective at higher concentrations”, the NF-κB pathway (NF-κB pathway) was “inhibited NF-κB pathway” and the “serum bilirubin vs normal range” value [2] was “marginal rise in the serum bilirubin”. The Acid phosphatase ([2]; 12 mg/kg) was 2.98 ± 1.2, the Bilirubin ([2]; 12 mg/kg) was 0.28 ± 0.30 mg/dL and the Glucose ([2]; 12 mg/kg) was 49 ± 0.193 mg/dL. For the same compound, the SGOT ([2]; 12 mg/kg) was 4.32 ± 1.87 U/L, the SGPT ([2]; 12 mg/kg) was 8.42 ± 5.8 U/L and the Uric acid ([2]; 12 mg/kg) was 5.89 ± 1.6 mg/dL. The gammaGT ([2]; 12 mg/kg) was 1.78 ± 0.68 U/L, the Acid phosphatase ([2]; 23 mg/kg) was 2.75 ± 0.74 and the Bilirubin ([2]; 23 mg/kg) was 0.19 ± 0.22 mg/dL. It also gave a Glucose ([2]; 23 mg/kg) of 57 ± 0.12 mg/dL, an SGOT ([2]; 23 mg/kg) of 8.64 ± 3.74 U/L and an SGPT ([2]; 23 mg/kg) of 12.15 ± 5.50 U/L. For the same compound, the Uric acid ([2]; 23 mg/kg) was 7.51 ± 4.13 mg/dL, the gammaGT ([2]; 23 mg/kg) was 2.38 ± 1.19 U/L and the Acid phosphatase ([2]; 47 mg/kg) was 2.06 ± 1.52. For the same compound, the Bilirubin ([2]; 47 mg/kg) was 1.41 ± 0.3 mg/dL, the Glucose ([2]; 47 mg/kg) was 58 ± 0.07 mg/dL and the SGOT ([2]; 47 mg/kg) was 3.24 ± 2.91 U/L. The SGPT ([2]; 47 mg/kg) was 10.8 ± 23^ U/L, the Uric acid ([2]; 47 mg/kg) was 5.59 ± 2.67 mg/dL and the gammaGT ([2]; 47 mg/kg) was 2.38 ± 0.97 U/L. For the same compound, the IC50 (IL-4) was 5 µM, the “Bone marrow cell viability %” value ([3]; 12 mg/kg bw) was over 98% and the “Lymph node lymphocyte viability % (pooled)” value ([3]; 12 mg/kg bw) was over 98%. For the same compound, the Splenocyte viability % ([3]; 12 mg/kg bw) was 97.69 ± 0.96%, the “Bone marrow cell viability %” value ([3]; 23 mg/kg bw) was over 98% and the “Lymph node lymphocyte viability % (pooled)” value ([3]; 23 mg/kg bw) was over 98%. For the same compound, the Splenocyte viability % ([3]; 23 mg/kg bw) was 97.64 ± 0.73%, the “Bone marrow cell viability %” value ([3]; 47 mg/kg bw) was over 98% and the “Lymph node lymphocyte viability % (pooled)” value ([3]; 47 mg/kg bw) was over 98%. For the same compound, the Splenocyte viability % ([3]; 47 mg/kg bw) was 98.25 ± 0.92%, the “DTH response (cell mediated immunity)” value ([3]; mouse, in vivo) was “insignificant changes in the DTH response” and the “viability of bone marrow cells, splenocyte and lymph node lymphocyte (trypan blue)” value ([3]; mouse, in vivo) was “No significant changes”. The “HA tire (reciprocal of the last dilution showing positive reaction)” value (“HA tire” below) ([3]; mouse, in vivo, 12 mg/kg) was 2560, the PFC ([3]; mouse, in vivo, 12 mg/kg) was 10333 ± 3008 per 10^6lymphocytes and the “PFC and HA titre against SRBC antigen” value ([3]; mouse, in vivo, 21 mg/kg) was “did not show any significant change”. For the same compound, the “DTH response (%)” value ([3]; mouse, in vivo, 23 mg/kg) was 19.24 ± 10.5%, the “HA tire” value ([3]; mouse, in vivo, 23 mg/kg) was 2560 and the PFC ([3]; mouse, in vivo, 23 mg/kg) was 11633 ± 3636 per 10^6lymphocytes. For the same compound, the “DTH response (%)” value ([3]; mouse, in vivo, 47 mg/kg) was 17.75 ± 9.8%, the “HA tire” value ([3]; mouse, in vivo, 47 mg/kg) was 1280 and the PFC ([3]; mouse, in vivo, 47 mg/kg) was 2800 ± 1288 per 10^6lymphocytes.
